From patent US12157730B2, “Heteroaryl derivative, method for producing same, and pharmaceutical composition comprising same as effective component” (VORONOI INC., priority 2019, dated 2024)

The compounds below were run against T1, Ba/F3 cell EGFR Exon20 ins NPH (Homo sapiens, UniProt P00533, INS773NPH) (assay: Ba/F3 cell proliferation suppression, EGFR Exon20 ins NPH). Conditions: GI50 class; Ba/F3 cell line with NPH inserted at Exon20 of EGFR; 72 hours.
T1 construct: expressed in transfected cells; host or cells: Ba/F3
Type: cell-based
Summary of the method: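 Growth suppression determined as GI50 following 72 h exposure across 12 concentrations up to 50 um, with viability by luminescent ATP assay (CellTiter-Glo).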

SMILES | Ba/F3 (NPH) Activity
C=CC(=O)Nc1cc(Nc2cc(N3OCC[C@@H]3c3ccc(Cl)c(Cl)c3F)ncn2)c(OC)cc1N1CCC(N2CCN(C(C)C)CC2)CC1 [compound 804, N-(5-((6-((R)-3-(3,4-dichloro-2-fluorophenyl)isoxazolidine-2-yl)pyrimidine-4-yl)amino)-2-(4-(4-isopropylpiperazine-1-yl)piperidine-1-yl)-4-methoxyphenyl) acrylamide] | A (GI50 < 50 nM)
C=CC(=O)Nc1cc(Nc2cc(N3OCC[C@H]3c3c(F)cccc3F)ncn2)c(OC)cc1N1CCC(N2CCN(C)CC2)CC1 [compound 896, N-(5-((6-((S)-3-(2,6-difluorophenyl)isoxazolidine-2-yl)pyrimidine-4-yl)amino)-4-methoxy-2-(4-(4-methylpiperazine-1-yl)piperidine-1-yl)phenyl)acrylamide] | C (500 nM ≤ GI50 < 5000 nM)
C=CC(=O)Nc1cc(Nc2cc(N3OCC[C@@H]3c3cccc(F)c3Cl)ncn2)c(OC)cc1N1CCC(N2C[C@H]3CCN(C)[C@H]3C2)CC1 [compound 447, N-(5-((6-((R)-3-(2-chloro-3-fluorophenyl)isoxazolidine-2-yl)pyrimidine-4-yl)amino)-4-methoxy-2-(4-((3aR,6aR)-1-methylhexahydropyrrolo [3,4-b]pyrrole-5(1H)-yl)piperidine-1-yl)phenyl)acrylamide] | A (GI50 < 50 nM)
C=CC(=O)Nc1cc(Nc2cc(N3OCC[C@@H]3c3cccc(F)c3)ncn2)c(OC)cc1-n1ccnc1C [compound 861, N-(5-((6-((R)-3-(3-fluorophenyl)isoxazolidine-2-yl)pyrimidine-4-yl)amino)-4-methoxy-2-(2-methyl-1H-imidazole-1-yl)phenyl)acrylamide] | B (50 nM ≤ GI50 < 500 nM)
C=CC(=O)Nc1cc(Nc2cc(N3OCC[C@@H]3c3cccc(OC)c3)ncn2)c(OC)cc1N1CCC(N2CCN(C(C)C)CC2)CC1 [compound 780, N-(2-(4-(4-isopropylpiperazine-1-yl)piperidine-1-yl)-4-methoxy-5-((6-((R)-3-(3-methoxyphenyl)isoxazolidine-2-yl)pyrimidine-4-yl)amino)phenyl)acrylamide] | B (50 nM ≤ GI50 < 500 nM)
C=CC(=O)Nc1cc(Nc2cc(N3OCC[C@@H]3c3cccc(Cl)c3)ncn2)c(OC)cc1N1CCC(N2C[C@H]3C[C@@H]2CO3)CC1 [compound 472, N-(2-(4-((1R,4R)-2-oxa-5-azabicyclo[2.2.1]heptane-5-yl)piperidine-1-yl)-5-((6-((R)-3-(3-chlorophenyl)isoxazolidine-2-yl)pyrimidine-4-yl)amino)-4-methoxyphenyl) acrylamide] | A (GI50 < 50 nM)
C=CC(=O)Nc1cc(Nc2cc(N3OCC[C@@H]3c3cccc(F)c3F)ncn2)c(OC)cc1N1CCC(N2CCN(CCC)CC2)CC1 [compound 342, N-(5-((6-((R)-3-(2,3-difluorophenyl)isoxazolidine-2-yl)pyrimidine-4-yl)amino)-4-methoxy-2-(4-(4-propylpiperazine-1-yl)piperidine-1-yl)phenyl)acrylamide] | A (GI50 < 50 nM)
C=CC(=O)Nc1cc(Nc2cc(N3OCC[C@@H]3c3ccc(Cl)cc3)ncn2)c(OC)cc1N1CCC(N2CCN(C)CC2)CC1 [compound 732, N-(5-((6-((R)-3-(4-chlorophenyl)isoxazolidine-2-yl)pyrimidine-4-yl)amino)-4-methoxy-2-(4-(4-methylpiperazine-1-yl)piperidine-1-yl)phenyl) acrylamide] | A (GI50 < 50 nM)
C=CC(=O)Nc1cc(Nc2cc(N3OCC[C@@H]3c3cccc(F)c3Cl)ncn2)c(OC)cc1N1CCN(CC)CC1 [compound 559, N-(5-((6-((R)-3-(2-chloro-3-fluorophenyl)isoxazolidine-2-yl)pyrimidine-4-yl)amino)-2-(4-ethylpiperazine-1-yl)-4-methoxyphenyl) acrylamide] | A (GI50 < 50 nM)
